Assay results from patent US4810636A, “Chromogenic acridinone enzyme substrates” (Miles Inc., priority 1987, dated 1989).
Values joined by “and” are separate entries in the source; they are usually repeats but may differ in a detail not shown here. Identical values can stand only once. Values belong to the compound of their own block, whether it stands above or below them.

How the values were obtained:
[1] = Visible absorbance (λmax, extinction coefficient) of substrate and chromogen; type: physicochemical; conditions: for absorbance (λmax): uncleaved substrate or protonated chromogen
Text: (§1) According to a preferred embodiment of the present invention, chromogenic enzyme substrate compounds of the general formula (8), where Y is a radical of an enzyme-specific sugar moiety Y--OH, preferably β-D-galactose or β-D-glucose, and R and R' are methyl, can be prepared by reacting the dimethyl chromogen (20) with a 1-halogeno-derivative of the enzyme-specific moiety, preferably a 1-bromo-derivative thereof, substituted at the hydroxy-positions thereof with protecting groups, preferably acetate protecting groups, to result in per-O-substituted derivatives which can be hydrolyzed to remove such protecting groups to obtain the desired chromogenic enzyme substrate compound. For example, the β-D-galactoside of (20), the chromogenic enzyme substrate (8) where Y is the radical of β-D-galactose and R and R' are methyl, can be prepared for use in the determination of β-D-galactosidase. In particular, the dimethyl acridinone chromogen (20), where R and R' are methyl in the general formula (2), is reacted with acetobromogalactose and silver oxide in ethyl acetate/quinoline to prepare the 7-(tetra-O-acetyl-β-D-galactopyranosyloxy)-9,9-dimethyl-9H-acridin-2-one (31) of the formula: [drawing 13] The acetate protecting groups of (31) are then hydrolyzed with sodium methoxide in methanol to result in the desired 7-β-D-galactopyranosyloxy-9,9-dimethyl-9H-acridin-2-one (32) of the present invention of the formula: [drawing 14] The resulting galactoside (32) has an absorbance (λmax) of 438 nm (yellow), an extinction coefficient of 27,400, and is soluble in a phosphate buffered solution (pH 7.4).
(§2) (C), 2462 (1970), where R and R' in the general formula (2) are methyl.

[2] = Phenolic pKa of the chromogen; type: physicochemical
Text: as §2

[3] = Solubility and stability in aqueous buffered / basic solution; type: physicochemical
Text: as §1, with “The acetate protecting groups of (31) are then hydrolyzed with sodium methoxide in methanol to result in the desired 7-β-D-galactopyranosyloxy-9,9-dimethyl-9H-acridin-2-one (32) of the present invention of the formula: [drawing 14]” left out, “7.4). […]” for “7.4).”

β-D-galactosidase [4] = biological target: T1, β-D-galactosidase (Escherichia coli, UniProt P00722); test: Hydrolysis of the galactoside substrate by β-D-galactosidase (Kcat, Km); type: biochemical; conditions: 50 mM phosphate buffered solution (pH 7.4) containing 5 mM MgCl2
Text: as §1, with “The acetate protecting groups of (31) are then hydrolyzed with sodium methoxide in methanol to result in the desired 7-β-D-galactopyranosyloxy-9,9-dimethyl-9H-acridin-2-one (32) of the present invention of the formula: [drawing 14]” left out

β-D-galactosidase [5] = biological target: T1, β-D-galactosidase; test: Analytical test device for β-D-galactosidase, reflectance dose response; type: biochemical; conditions: 0.02-0.20 ng/ml β-D-galactosidase, reflectance at 630 nm after 50-70 seconds
Experimental: A 2 inch wide×2 inch long sheet of Whatman 54 filter paper (Whatman, Inc., Clifton, N.J., U.S.A.) was immersed in an aqueous solution comprising 0.3M bicine buffer (pH 7.9) and 4.0 mM MgCl2 and air-dried overnight at room temperature. The filter paper was then immersed in a methanol solution containing 15 mM of the substrate product (32) from Example 3 and air-dried for one hour at room temperature to obtain a filter paper which was yellow in color.
A 0.5 cm wide×1.0 cm long segment of the above-described impregnated yellow filter paper was mounted onto and along the edge of one surface of a 0.5 cm×8.125 cm polystyrene support (Tricite®, Dow Chemical Co., Midland, Mich., U.S.A.) previously laminated with a 2 mm strip of Double Stick® double-faced adhesive tape (3M Company, St. Paul, Minn., U.S.A.) for use as an analytical test device for the detection of β-D-galactosidase from a liquid test sample.
Ten analytical test devices were prepared according to Example 4 and employed to determine the dose response of the substrate product compound (32) of the present invention to β-D-galactosidase.
[…] aqueous test sample solutions containing β-D-galactosidase concentrations of 0.02 ng/ml, 0.04 ng/ml, 0.06 ng/ml, 0.08 ng/ml, 0.12 ng/ml, 0.14 ng/ml, 0.16 ng/ml, 0.18 ng/ml and 0.20 ng/ml were prepared and an analytical test device dipped into each.

alkaline phosphatase = test: Hydrolysis of the phosphate substrate by alkaline phosphatase (KM, Kcat); type: biochemical; conditions: 1.0M diethanolamine buffer (pH=9.8) containing 5.0 mM MgCl2
α-amylase [6] = test: Analytical test device for the detection of α-amylase, reflectance; type: biochemical; conditions: for Reactivity × 10^-2: linear regression of L(R) between 180 and 200 seconds, 630 nm
Experimental: A sheet of Whatman 54 filter paper (Whatman, Inc., Clifton, N.J., U.S.A.) was immersed into a solution comprising the liquid α-amylase detection reagent prepared according to Example 10, 0.1% Triton X-100 (Sigma Chemical Co., St. Louis, Mo., U.S.A.) and 0.5% carboxycellulose, and dried.
Analytical test devices were prepared by mounting 0.5 cm wide×1.0 cm long segment of the aforementioned impregnated filter paper onto and along the edge of one surface of 0.5 cm×8.125 cm polystyrene supports (Tricite®, Dow Chemical Co., Midland, Mich., U.S.A.) previously laminated with a 2 mm strip of Double Stick® double-faced adhesive tape (3M Company, St. Paul, Minn., U.S.A.).
Three 30 μL aliquots of undiluted serum containing 39 IU/L, 78 IU/L, 117 IU/L, 157 IU/L, 235 IU/L, and 313 IU/L, respectively, of α-amylase were applied, independently, to a test device and the rate of color change produced by the liberated chromogen on each device was measured at 630 nm on a Seralyzer® reflectance photometer (Miles Inc., Elkhart, Ind., U.S.A.) from between 0 seconds and 240 seconds after the serum sample was added to each test device.

α-amylase [7] = test: Liquid analytical test system for the detection of α-amylase; type: biochemical; conditions: for Absorbance (634 nm): 37° C.; for Absorbance/Minute: average of three consecutive readings between 3 and 6 minutes
Experimental: A liquid α-amylase detection reagent was prepared by combining 1.8 mM DMA-G7 (43) prepared according to Example 9, 38 units of α-glucosidase and 20 units of β-glucosidase in 1.0 mL of buffered solution comprising 50 mM PIPES, 50 mM NaCl, and 5.0 mM calcium chloride (pH 7.0). Amylase control serum (0.025 mL) containing 37 IU/L, 175 IU/L, and 313 IU/L, respectively, of α-amylase were added to the detection reagent, independently, and incubated at 37° C. The enzymatic action of α-amylase on the substrate compound in each of the mixtures liberated shorter chain chromogenic maltooligosaccharide compounds thereof (e.g., DMA-G2 to DMA-G4) which, in turn, was enzymatically acted upon by the α-glucosidase and β-glucosidaseto liberate the optically active form of the dimethyl acridinone chromogen (20). The rate of color change produced by the liberated chromogen in each of the mixtures was measured at 634 nm on a Cary 219 spectrophotometer (Varian Associates, Inc., Sonnyvale, Calif., U.S.A.) from between 1 and 9 minutes after each of the serum samples were added to the detection reagent (Table 2).

T1 sequence (P00722 2-1024): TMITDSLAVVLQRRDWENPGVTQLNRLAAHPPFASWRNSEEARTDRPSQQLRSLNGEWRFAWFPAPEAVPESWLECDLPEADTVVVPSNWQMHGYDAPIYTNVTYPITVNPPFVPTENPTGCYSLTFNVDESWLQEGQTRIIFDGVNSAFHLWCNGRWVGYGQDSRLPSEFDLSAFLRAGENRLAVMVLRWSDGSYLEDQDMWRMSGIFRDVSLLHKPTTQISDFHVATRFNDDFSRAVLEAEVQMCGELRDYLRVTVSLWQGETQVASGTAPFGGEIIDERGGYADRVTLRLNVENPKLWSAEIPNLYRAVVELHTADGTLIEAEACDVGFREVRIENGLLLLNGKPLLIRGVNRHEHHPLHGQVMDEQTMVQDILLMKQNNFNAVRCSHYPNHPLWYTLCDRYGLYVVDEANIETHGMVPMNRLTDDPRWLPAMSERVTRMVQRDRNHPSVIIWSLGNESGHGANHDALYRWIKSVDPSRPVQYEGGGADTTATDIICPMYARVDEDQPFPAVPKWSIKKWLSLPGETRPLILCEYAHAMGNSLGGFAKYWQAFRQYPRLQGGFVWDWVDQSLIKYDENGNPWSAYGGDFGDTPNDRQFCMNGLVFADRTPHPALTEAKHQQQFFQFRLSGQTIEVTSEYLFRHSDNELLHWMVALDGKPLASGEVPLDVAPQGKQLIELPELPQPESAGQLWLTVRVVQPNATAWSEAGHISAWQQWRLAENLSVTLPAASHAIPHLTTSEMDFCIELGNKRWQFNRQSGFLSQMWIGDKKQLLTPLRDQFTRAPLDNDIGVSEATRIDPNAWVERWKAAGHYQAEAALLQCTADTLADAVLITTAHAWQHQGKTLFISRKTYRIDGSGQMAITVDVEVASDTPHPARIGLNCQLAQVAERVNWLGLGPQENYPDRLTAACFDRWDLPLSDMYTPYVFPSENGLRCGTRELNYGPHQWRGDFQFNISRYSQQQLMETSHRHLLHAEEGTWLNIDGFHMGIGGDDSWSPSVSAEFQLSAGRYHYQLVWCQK

shift in the absorbance maximum on deprotonation [1]: 176 nm | absorbance of the deprotonated anion ([1]; deprotonated chromogen): 635 nm | extinction coefficient of the anion ([1]; pH=10, in M-1 cm-1 (unit assumed)): 53,100 | absorbance (λmax) [1]: 459 nm | phenolic pKa [2]: 7.1 | solubility and stability ([3]; aqueous, basic solutions): soluble and stable
Structure (SMILES): CC1(C)C2=CC(=O)C=CC2=Nc2ccc(O)cc21 [Compound 20, 7-hydroxy-9,9-dimethyl-9H-acridin-2-one, reference compound]

Structure (SMILES): CC1(C)C2=CC(=O)C=CC2=Nc2ccc(O[C@@H]3O[C@H](CO)[C@H](O)[C@H](O)[C@H]3O)cc21 [Compound 32, 7-β-D-galactopyranosyloxy-9,9-dimethyl-9H-acridin-2-one]
change in absorbance between substrate and liberated chromogen anion [1]: 196 nm | absorbance of the liberated chromogen anion ([1]; after hydrolysis by β-D-galactosidase, phosphate buffered solution): 634 nm | absorbance (λmax) [1]: 438 nm | extinction coefficient ([1]; uncleaved substrate, at 438 nm, in M-1 cm-1 (unit assumed)): 27,400 | solubility ([3]; phosphate buffered solution (pH 7.4)): soluble | rate at which the enzyme cleaves the substrate (Kcat) (β-D-galactosidase [4]): 1.32×10^4 mol. min.^-1 /mol. active site | Km (β-D-galactosidase [4]; read-out: binding constant (Km)): 170 µM | dose response of reflectance to β-D-galactosidase (β-D-galactosidase [5]): linear dose response

Structure (SMILES): CC1(C)C2=CC(=O)C=CC2=Nc2ccc(OP(=O)(O)O)cc21 [Compound 37, disodium-9,9-dimethyl-9H-acridin-2-one-7-phosphate]
Kcat (alkaline phosphatase): 1.94×10^5 mol/min/mol of enzyme | Km (alkaline phosphatase): 480 µM

Structure (SMILES): CC1(C)C2=CC(=O)C=CC2=Nc2ccc(O[C@@H]3O[C@H](CO)[C@@H](O[C@H]4O[C@H](CO)[C@@H](O[C@H]5O[C@H](CO)[C@@H](O[C@H]6O[C@H](CO)[C@@H](O[C@H]7O[C@H](CO)[C@@H](O[C@H]8O[C@H](CO)[C@@H](O[C@H]9O[C@H](CO)[C@@H](O)[C@H](O)[C@H]9O)[C@H](O)[C@H]8O)[C@H](O)[C@H]7O)[C@H](O)[C@H]6O)[C@H](O)[C@H]5O)[C@H](O)[C@H]4O)[C@H](O)[C@H]3O)cc21 [DMA-G7, 7-β-maltoheptaosyloxy-9,9-dimethyl-acridin-2-one]
dose response to α-amylase (α-amylase [6]; 39-313 IU/L α-amylase in undiluted serum): linear dose response | Reactivity × 10^-2 (α-amylase [6]; 39 IU/L α-amylase serum): 0.384 × 10^-2 and 0.373 × 10^-2 and 0.359 × 10^-2 | Reactivity × 10^-2 (α-amylase [6]; 78 IU/L α-amylase serum): 0.957 × 10^-2 and 0.941 × 10^-2 and 0.954 × 10^-2 | Reactivity × 10^-2 (α-amylase [6]; 117 IU/L α-amylase serum): 1.450 × 10^-2 and 1.510 × 10^-2 and 1.430 × 10^-2 | Reactivity × 10^-2 (α-amylase [6]; 157 IU/L α-amylase serum): 1.781 × 10^-2 and 1.999 × 10^-2 and 1.886 × 10^-2 | Reactivity × 10^-2 (α-amylase [6]; 235 IU/L α-amylase serum): 2.560 × 10^-2 and 2.596 × 10^-2 and 2.610 × 10^-2 | Reactivity × 10^-2 (α-amylase [6]; 313 IU/L α-amylase serum): 2.961 × 10^-2 and 2.989 × 10^-2 and 2.916 × 10^-2 | dose response to the α-amylase concentration (α-amylase [7]; 37-313 IU/L, readings between 3 and 6 minutes): linear dose response | Absorbance (634 nm) (α-amylase [7]; 37 IU/L α-amylase, 1 minute): 0.123 | Absorbance (634 nm) (α-amylase [7]; 37 IU/L α-amylase, 2 minutes): 0.129 | Absorbance (634 nm) (α-amylase [7]; 37 IU/L α-amylase, 3 minutes): 0.138 | Absorbance (634 nm) (α-amylase [7]; 37 IU/L α-amylase, 4 minutes): 0.148 | Absorbance (634 nm) (α-amylase [7]; 37 IU/L α-amylase, 5 minutes): 0.160 | Absorbance (634 nm) (α-amylase [7]; 37 IU/L α-amylase, 6 minutes): 0.172 | Absorbance (634 nm) (α-amylase [7]; 37 IU/L α-amylase, 7 minutes): 0.187 | Absorbance (634 nm) (α-amylase [7]; 37 IU/L α-amylase, 8 minutes): 0.202 | Absorbance (634 nm) (α-amylase [7]; 37 IU/L α-amylase, 9 minutes): 0.218 | Absorbance/Minute (α-amylase [7]; 37 IU/L α-amylase): 0.011 | Absorbance (634 nm) (α-amylase [7]; 175 IU/L α-amylase, 1 minute): 0.150 | Absorbance (634 nm) (α-amylase [7]; 175 IU/L α-amylase, 2 minutes): 0.178 | Absorbance (634 nm) (α-amylase [7]; 175 IU/L α-amylase, 3 minutes): 0.223 | Absorbance (634 nm) (α-amylase [7]; 175 IU/L α-amylase, 4 minutes): 0.279 | Absorbance (634 nm) (α-amylase [7]; 175 IU/L α-amylase, 5 minutes): 0.341 | Absorbance (634 nm) (α-amylase [7]; 175 IU/L α-amylase, 6 minutes): 0.409 | Absorbance (634 nm) (α-amylase [7]; 175 IU/L α-amylase, 7 minutes): 0.481 | Absorbance (634 nm) (α-amylase [7]; 175 IU/L α-amylase, 8 minutes): 0.555 | Absorbance (634 nm) (α-amylase [7]; 175 IU/L α-amylase, 9 minutes): 0.631 | Absorbance/Minute (α-amylase [7]; 175 IU/L α-amylase): 0.062 | Absorbance (634 nm) (α-amylase [7]; 313 IU/L α-amylase, 1 minute): 0.171 | Absorbance (634 nm) (α-amylase [7]; 313 IU/L α-amylase, 2 minutes): 0.212 | Absorbance (634 nm) (α-amylase [7]; 313 IU/L α-amylase, 3 minutes): 0.282 | Absorbance (634 nm) (α-amylase [7]; 313 IU/L α-amylase, 4 minutes): 0.372 | Absorbance (634 nm) (α-amylase [7]; 313 IU/L α-amylase, 5 minutes): 0.474 | Absorbance (634 nm) (α-amylase [7]; 313 IU/L α-amylase, 6 minutes): 0.585 | Absorbance (634 nm) (α-amylase [7]; 313 IU/L α-amylase, 7 minutes): 0.702 | Absorbance (634 nm) (α-amylase [7]; 313 IU/L α-amylase, 8 minutes): 0.823 | Absorbance (634 nm) (α-amylase [7]; 313 IU/L α-amylase, 9 minutes): 0.948 | Absorbance/Minute (α-amylase [7]; 313 IU/L α-amylase): 0.109
